Laboratory results from patent US11174267B2, “Spiroindolinones and therapeutic uses thereof” (The Regents of the University of California, priority 2015, dated 2021).
Like-named read-outs stand apart in the source and are kept apart here.

Experiments:
[1] = system: susceptible strain (HLY4123) of C. albicans; experiment: Dose-response with fluconazole (0.25 μg/mL) against susceptible strain; format: cell-based, Candida albicans
Protocol: (§1) C. albicans was grown in SC medium overnight and then diluted to an effective OD600 of 0.0625. Serial ten-fold dilutions of the test compounds (0.15-1500 μM) were prepared in DMSO in 1.5 mL Eppendorf tubes. […] The plates were incubated in a rotary shaker/incubator at 30° C. for 16 h. The contents of each well was resuspended with a micropipettor and a 20 μL aliquot was added to a polystyrene cuvette and diluted with 680 μL of deionized water. The suspension was triturated again immediately before measuring the absorbance at 600 nm (OD600) for cell densities. EC50 values were determined by fitting to the Hill equation using the Excel-based tool ED50PLUS v1.0 (Mario H. Vargas) or using Mathematica. Similar procedures were used for Candida glabrata and Cryptococcus neoformans.

[2] = system: resistant clinical isolates of C. albicans; design: unit not given beside the values; conditions: cited from earlier work
[3] = system: resistant clinical isolates of C. albicans; experiment: Screen of resistant clinical isolates, single dose, broth microdilution (growth OD600); format: cell-based, Candida albicans; conditions: fluconazole 64 μg/mL alone, 16 h in SC at 30° C.
Description: (Flowers, S. A., et al. Eukaryotic Cell 2012, 11, 1289-1299.) The strains grow at dramatically different rates.

[4] = biological target: C. albicans sterol α-demethylase (a.k.a. Erg11 or CYP51) (Candida albicans, UniProt P10613); experiment: Literature: inhibition of sterol α-demethylase by fluconazole; format: biochemical; conditions: ten times the Ki, >90% inhibition expected
Chain of C. albicans sterol α-demethylase (a.k.a. Erg11 or CYP51) (P10613 whole entry): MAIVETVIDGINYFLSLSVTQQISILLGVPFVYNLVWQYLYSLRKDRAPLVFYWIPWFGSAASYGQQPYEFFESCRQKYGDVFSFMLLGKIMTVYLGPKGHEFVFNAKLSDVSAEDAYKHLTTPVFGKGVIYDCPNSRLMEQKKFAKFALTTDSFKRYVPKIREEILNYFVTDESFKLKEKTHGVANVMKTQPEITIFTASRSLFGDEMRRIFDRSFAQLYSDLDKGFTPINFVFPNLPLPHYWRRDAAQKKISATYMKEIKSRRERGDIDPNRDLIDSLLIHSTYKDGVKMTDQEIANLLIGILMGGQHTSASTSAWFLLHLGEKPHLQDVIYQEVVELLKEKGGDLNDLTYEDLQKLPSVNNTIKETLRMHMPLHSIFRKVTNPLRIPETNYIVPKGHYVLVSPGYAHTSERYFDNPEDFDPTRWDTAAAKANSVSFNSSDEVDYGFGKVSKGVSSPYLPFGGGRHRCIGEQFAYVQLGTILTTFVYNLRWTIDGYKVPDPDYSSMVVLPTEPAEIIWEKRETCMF

[5] = system: C. albicans strain HLY4123 and clinical isolates 26 and 45; experiment: Checkerboard assay (MIC90, FIC index); format: cell-based, Candida albicans; conditions: Candida albicans
Protocol: Checkerboard assays were carried out using four 24-well plates. The results on each plate were normalized by duplication of one row and one column with a row and column on another plate. C. albicans was grown in SC medium overnight and then diluted to an effective OD600 of 0.0625. Serial ten-fold dilutions of the test compounds (150 mM) were prepared in DMSO in 1.5 mL Eppendorf tubes. […] Concentrations of compound in rows 1-11 varied from 300 μM to 0.0003 nM; the last row 12 contained no compound. […] The plates were incubated in a rotary shaker/incubator at 30° C. for 16 h. The contents of each well was resuspended with a micropipettor and a 20 μL aliquot was added to a polystyrene cuvette and diluted with 680 μL of deionized water. The suspension was triturated again immediately before measuring the absorbance at 600 nm. The MIC90 values were determined as the lowest concentrations of the drugs (alone or in combination) that inhibited fungal growth by 90% compared with that of the drug-free wells.
In all of the strains tested, the FIC index was below 0.5, fitting the classical definition of synergy.

[6] = system: Resistant Candida albicans (clinical isolate-45); experiment: EC50 in combination with fluconazole, resistant C. albicans; format: cell-based; conditions: C. albicans clinical isolate-45; [fluconazole] = 64 μg/mL; read-out: EC50 Resistant Candida albicans
Candida glabrata = experiment: EC50 in combination with fluconazole, Candida glabrata; format: cell-based; conditions: [fluconazole] = 128 μg/mL
Description: (§2) Strains and growth condition. The wild-type Candida albicans strains used were SC5314 and CaSS1. Cdr1 heterozygous were from Merck Sharp & Dohme Corp. Double Barcoded (DBC) library of heterozygous Candida albicans mutants (version 2013A). Cdr1 deficient mutant was obtained by counterselection of the GRACE library strain on 5-Fluoroorotic Acid (5-FOA) containing plate. Clinical isolated resistant C. albicans were from Dr. David Rogers. Cryptococcus neoformans var. grubii H99 (ATCC 208821) and Candida glabrata BG2, a fluconazole-resistant clinical isolate, were used. Yeast strains were cultured at 30° C. in synthetic complete (SC) medium containing 2% glucose.
as §1
(§3) Because fungal drug-efflux ABC transporters are conserved, Cdr1 inhibitors that target the conserved regions of the pumps are expected to inhibit the drug efflux pumps in all fungi including C. albicans. […] Therefore, those spiroindolinones are candidates for combination antifungal therapy with azoles against invasive infections of not only C. albicans, but also other pathogenic fungi.

Cryptococcus neoformans = experiment: EC50 in combination with fluconazole, Cryptococcus neoformans; format: cell-based; conditions: [fluconazole] = 4 μg/mL
Description: as §2, §1, §3

NIH 3T3 cells = experiment: Cytotoxicity, LDH assay; format: cell-based; conditions: concentrations up to 1.5 mM
Protocol: The cytotoxicity of spiroindoline Compounds 1, 8 and 25 were tested against NIH 3T3 cells at concentrations up to 1.5 mM (FIG. 13) using an LDH assay.

[7] = in the presence of fluconazole; cited from earlier work
[8] = with fluconazole 0.25 μg/mL, strain HLY4123
[9] = Candida albicans, with fluconazole 0.25 μg/mL, strain HLY4123

Compound: Cc1c(Cl)ccc2c1NC(=O)[C@@]21[C@H]2C(=O)N(c3ccccc3)C(=O)[C@H]2[C@H]2CNCCN21 [Compound 20]
- activity (in words) [1, 8]: low activity

Compound: OC(Cn1cncn1)(Cn1cncn1)c1ccc(F)cc1F [fluconazole, reference compound]
- MICFlc ([2]; clinical isolate 15): 16
- MICFlc ([2]; clinical isolate 16): 16
- MICFlc ([2]; clinical isolate 17): 32
- MICFlc ([2]; clinical isolate 21): 32
- MICFlc ([2]; clinical isolate 22): 32
- MICFlc ([2]; clinical isolate 23): 32
- MICFlc ([2]; clinical isolate 25): 32
- MICFlc ([2]; clinical isolate 26): 32
- MICFlc ([2]; clinical isolate 30): 64
- MICFlc ([2]; clinical isolate 33): 64
- MICFlc ([2]; clinical isolate 36): 64
- MICFlc ([2]; clinical isolate 41): 128
- MICFlc ([2]; clinical isolate 45): 128
- Growth (OD600) +Fluc ([3]; clinical isolate 15): 5.58
- Growth (OD600) +Fluc ([3]; clinical isolate 16): 0.64
- Growth (OD600) +Fluc ([3]; clinical isolate 17): 3.96
- Growth (OD600) +Fluc ([3]; clinical isolate 21): 6.46
- Growth (OD600) +Fluc ([3]; clinical isolate 22): 3.27
- Growth (OD600) +Fluc ([3]; clinical isolate 23): 6.77
- Growth (OD600) +Fluc ([3]; clinical isolate 25): 2.90
- Growth (OD600) +Fluc ([3]; clinical isolate 26): 6.44
- Growth (OD600) +Fluc ([3]; clinical isolate 30): 9.40
- Growth (OD600) +Fluc ([3]; clinical isolate 33): 7.38
- Growth (OD600) +Fluc ([3]; clinical isolate 36): 5.08
- Growth (OD600) +Fluc ([3]; clinical isolate 41): 9.47
- Growth (OD600) +Fluc ([3]; clinical isolate 45): 9.17
- Growth (OD600) +Fluc ([3]; clinical isolate 49): 11.31
- theoretical limit for fluconazole potency [4]: around 0.3 μM
- MIC90 ([5]; clinical isolate 26, fluconazole alone, read-out: MICFlc (MIC90)): 836 µM
- MIC90 ([5]; clinical isolate 26, with Compound 25, read-out: MICFlc (+cpd) (MIC90)): 105 µM
- MIC90 ([5]; clinical isolate 45, fluconazole alone, read-out: MICFlc (MIC90)): 836 µM
- MIC90 ([5]; clinical isolate 45, with Compound 25, read-out: MICFlc (+cpd) (MIC90)): 105 µM
- MIC90 ([5]; read-out: MIC90 for fluconazole, susceptible strain, Compound 25 present at 300 nM): 0.125 µM
- MIC90 ([5]; strain HLY4123, fluconazole alone, read-out: MICFlc (MIC90)): 0.5 µM
- MIC90 ([5]; strain HLY4123, with Compound 25, read-out: MICFlc (+cpd) (MIC90)): 0.125 µM

Compound: Cc1c(Cl)ccc2c1NC(=O)[C@]21N[C@H](Cc2ccccc2)[C@@H]2C(=O)N(c3ccccc3)C(=O)[C@@H]21 (racemic) [Compound 8]
- EC50 [6]: 490 nM
- EC50 (Candida glabrata): 1720 nM
- EC50 (Cryptococcus neoformans): 11300 nM
- EC50 [1, 9]: 1 nM
- cytotoxicity (NIH 3T3 cells): weak to negligible cytotoxicity

Compound: CN[C@H]1CC[C@@H](c2ccc(Cl)c(Cl)c2)c2ccccc21 [sertraline]
- MIC [7]: ≥ 0.5 µg/mL

Compound: Cc1c(Cl)ccc2c1NC(=O)[C@@]21[C@H]2C(=O)N(c3ccccc3)C(=O)[C@H]2[C@H]2CN(C(=O)OC(C)(C)C)CCN21 (racemic) [Compound 9, (±)-tert-Butyl (3R,3a′R,3b'S,9a'S)-6-chloro-7-methyl-1′,2,3′-trioxo-2′-phenyl-2′,3′,3a′,3b′,4′,6′,7′,9a′-octahydrospiro[indoline-3,9′-pyrrolo[3′,4′:3,4]pyrrolo[1,2-a]pyrazine]-5′(1′H)-carboxylate]
- EC50 [1, 9]: 5.6 nM
- times more potent than compound 33 ([1]; ratio of EC50s, diastereomers): over 35
- EC50 [1, 8]: 6 to 8 nM
